Where only a bound is given, the exact number is not on record here.

The test concerns the target T1, human TLR7 (Homo sapiens, UniProt Q9NYK1).
T1 construct: host or cells: HEK293 (HEK-Blue hTLR7)
T1 sequence (Q9NYK1 27-1049): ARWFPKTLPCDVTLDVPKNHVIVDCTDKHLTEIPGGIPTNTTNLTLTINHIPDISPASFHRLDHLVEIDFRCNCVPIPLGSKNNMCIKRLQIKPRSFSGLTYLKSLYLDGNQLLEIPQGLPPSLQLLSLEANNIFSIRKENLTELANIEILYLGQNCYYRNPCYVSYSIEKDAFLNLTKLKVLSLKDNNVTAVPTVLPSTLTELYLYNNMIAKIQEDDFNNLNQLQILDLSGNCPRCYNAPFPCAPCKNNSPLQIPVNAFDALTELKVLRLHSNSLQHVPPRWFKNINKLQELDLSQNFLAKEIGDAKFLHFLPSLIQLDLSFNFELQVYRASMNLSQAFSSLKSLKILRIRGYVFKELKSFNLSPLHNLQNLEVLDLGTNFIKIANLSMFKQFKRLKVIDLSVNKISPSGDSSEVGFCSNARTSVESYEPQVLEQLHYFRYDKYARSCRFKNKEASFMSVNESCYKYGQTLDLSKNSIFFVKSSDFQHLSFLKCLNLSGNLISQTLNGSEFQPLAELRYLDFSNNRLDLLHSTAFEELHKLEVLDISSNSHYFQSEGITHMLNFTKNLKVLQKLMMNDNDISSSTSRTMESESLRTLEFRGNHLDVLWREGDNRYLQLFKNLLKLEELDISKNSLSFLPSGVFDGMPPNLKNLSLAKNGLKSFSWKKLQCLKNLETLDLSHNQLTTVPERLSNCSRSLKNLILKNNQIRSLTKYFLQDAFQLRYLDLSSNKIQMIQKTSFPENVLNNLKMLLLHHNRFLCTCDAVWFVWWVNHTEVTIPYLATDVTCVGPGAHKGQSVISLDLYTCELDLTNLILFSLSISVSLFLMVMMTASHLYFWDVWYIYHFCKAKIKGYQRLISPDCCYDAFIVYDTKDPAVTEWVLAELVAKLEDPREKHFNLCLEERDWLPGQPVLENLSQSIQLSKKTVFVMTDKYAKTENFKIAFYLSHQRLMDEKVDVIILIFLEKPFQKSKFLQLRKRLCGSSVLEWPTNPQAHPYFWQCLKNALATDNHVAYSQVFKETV
Description: HEK293-Blue hTLR7 Reporter Assay (QUANTI-BLUE, SEAP readout). In kind it is cell-based. The conditions noted are these: HEK-Blue-hTLR7 cells, 24 hrs treatment, Table 1, B1-B232. The procedure, abridged:
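HEK-Blue-hTLR7 cells expressing NF-κB/AP-1-driven SEAP, 4×10^4 cells/well, treated 24 h at 37° C with increasing compound concentrations. Supernatant SEAP measured with Quanti-blue substrate (10-30 min, 37° C) at 620-655 nm; EC50 from sigmoidal dose-response fit.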
(In general: In a reporter assay the amount or activity of a reporter protein is the signal.)
As a reminder, the EC50 is the concentration needed to bring the measured effect to its halfway point. A high value points to weaker potency. In turn, `CCCCOc1nc(N)c2ncc(Cc3cnc(N4CCC(N(C)C)C4)c(C)c3)n2n1` (stereo not drawn) [Compound B87, 2-butoxy-7-((6-(3-(dimethylamino)pyrrolidin-1-yl)-5-methylpyridin-3-yl)methyl)imidazo[2,1-f][1,2,4]triazin-4-amine] returned an EC50 of 435 nM.

Consider `CCCCNc1nc(N)c2ncc(Cc3cnc(N4CCC(N)CC4)c(C)c3)n2n1` [Compound B88, 7-((6-(4-aminopiperidin-1-yl)-5-methylpyridin-3-yl)methyl)-N2-butylimidazo[2,1-f][1,2,4]triazine-2,4-diamine], for which the midpoint of the response, the EC50, lay at 61 nM.

Consider `CCCCOc1nc(N)c2ncc(Cc3cnc(N4CCN(S(=O)(=O)CCC)CC4)c(C)c3)n2n1` [Compound B89, 2-butoxy-7-((5-methyl-6-(4-(propylsulfonyl)piperazin-1-yl)pyridin-3-yl)methyl)imidazo[2,1-f][1,2,4]triazin-4-amine], for which the 50% effective concentration (EC50) is more than 10000 nM.

Take `CCCCOc1nc(N)c2ncc(Cc3ccc(N4CCNCC4)c(C(C)C)c3)n2n1` [Compound B90, 2-butoxy-7-(3-isopropyl-4-(piperazin-1-yl)benzyl)imidazo[2,1-f][1,2,4]triazin-4-amine]: a half-maximal response (EC50) required 2360 nM.

`CCCCOc1nc(N)c2ncc(Cc3cnc(N4CCN(CCN)CC4)c(C)c3)n2n1` [Compound B91, 7-((6-(4-(2-aminoethyl)piperazin-1-yl)-5-methylpyridin-3-yl)methyl)-2-butoxyimidazo[2,1-f][1,2,4]triazin-4-amine] had an EC50 of 150 nM.

Compound `CCCCOc1nc(N)c2ncc(Cc3ccc(N4CCNCC4)c(CC)c3)n2n1` [Compound B92, 2-butoxy-7-(3-ethyl-4-(piperazin-1-yl)benzyl)imidazo[2,1-f][1,2,4]triazin-4-amine] returned a 50% effective concentration (EC50) of 464 nM.

For the compound `CCCOc1nc(N)c2ncc(Cc3cnc(N4CCNCC4)c(C)c3)n2n1` [Compound B93, 7-((5-methyl-6-(piperazin-1-yl)pyridin-3-yl)methyl)-2-propoxyimidazo[2,1-f][1,2,4]triazin-4-amine], the EC50 was 641 nM.

`CCCC(C)Oc1nc(N)c2ncc(Cc3cnc(N4CCN(C(=O)CN(C)C)CC4)c(C)c3)n2n1` (stereo not drawn) [Compound B94, 1-(4-(5-((4-amino-2-(pentan-2-yloxy)imidazo[2,1-f] [1,2,4]triazin-7-yl)methyl)-3-methylpyridin-2-yl)piperazin-1-yl)-2-(dimethylamino)ethan-1-one] yielded an EC50 of 13 nM.

For `CCCCOc1nc(N)c2ncc(Cc3cnc(N4CCC(C(=O)N(C)C)CC4)c(C)c3)n2n1` [Compound B95, 1-(5-((4-amino-2-butoxyimidazo[2,1-f][1,2,4]triazin-7-yl)methyl)-3-methylpyridin-2-yl)-N,N-dimethylpiperidine-4-carboxamide], the EC50 worked out at 4380 nM.

`CCCCNc1nc(N)c2ncc(Cc3cnc(N4CCC(CN(C)C)CC4)c(C)c3)n2n1` [Compound B96, N2-butyl-7-((6-(4-((dimethylamino)methyl)piperidin-1-yl)-5-methylpyridin-3-yl)methyl)imidazo[2,1-f][1,2,4]triazine-2,4-diamine] gave an EC50 of 17 nM.

`CCCCOc1nc(N)c2ncc(Cc3cnc(N4CCN[C@H](C)C4)c(C)c3)n2n1` [Compound B97, (R)-2-butoxy-7-((5-methyl-6-(3-methylpiperazin-1-yl)pyridin-3-yl)methyl)imidazo[2,1-f][1,2,4]triazin-4-amine] showed an EC50 of 163 nM.

`CCCCOc1nc(N)c2ncc(Cc3ccc(N4CCN[C@H](C)C4)c(C)c3)n2n1` [Compound B98, (R)-2-butoxy-7-(3-methyl-4-(3-methylpiperazin-1-yl)benzyl)imidazo[2,1-f][1,2,4]triazin-4-amine]: the midpoint of the response, the EC50, lay at 1130 nM.

The compound `CCCCOc1nc(N)c2ncc(Cc3ccc(N4CCNCC4)c(OCCC)c3)n2n1` [Compound B99, 2-butoxy-7-(4-(piperazin-1-yl)-3-propoxybenzyl)imidazo[2,1-f][1,2,4]triazin-4-amine] showed an EC50 of 926 nM.

`COCCOCCOCCOCCOc1nc(N)c2ncc(Cc3cnc(N4CCNCC4)c(C)c3)n2n1` [Compound B100, 2-((2,5,8,11-tetraoxatridecan-13-yl)oxy)-7-((5-methyl-6-(piperazin-1-yl)pyridin-3-yl)methyl)imidazo[2,1-f][1,2,4]triazin-4-amine] came in with an EC50 of more than 10000 nM.

`CCCCOc1nc(N)c2ncc(Cc3cnc(N4CCC5(CCNCC5)C4)c(C)c3)n2n1` [Compound B101, 2-butoxy-7-((5-methyl-6-(2,8-diazaspiro[4.5]decan-2-yl)pyridin-3-yl)methyl)imidazo[2,1-f][1,2,4]triazin-4-amine] returned a 50% effective concentration (EC50) of 425 nM.

As for `CCCCOc1nc(N)c2ncc(Cc3cnc(N4CC5(CCNCC5)C4)c(C)c3)n2n1` [Compound B102, 2-butoxy-7-((5-methyl-6-(2,7-diazaspiro[3.5]nonan-2-yl)pyridin-3-yl)methyl)imidazo[2,1-f][1,2,4]triazin-4-amine], the midpoint of the response, the EC50, lay at 464 nM.

`CCCCOc1nc(N)c2ncc(Cc3cnc(N4CCC(OC)CC4)c(C)c3)n2n1` [Compound B103, 2-butoxy-7-((6-(4-methoxypiperidin-1-yl)-5-methylpyridin-3-yl)methyl)imidazo[2,1-f][1,2,4]triazin-4-amine]: a half-maximal effect (EC50) was put at 7960 nM.

Compound `CCCCOc1nc(N)c2ncc(Cc3cnc(N4CCC(COC)CC4)c(C)c3)n2n1` [Compound B104, 2-butoxy-7-((6-(4-(methoxymethyl)piperidin-1-yl)-5-methylpyridin-3-yl)methyl)imidazo[2,1-f][1,2,4]triazin-4-amine] registered an EC50 of more than 10000 nM.

`CCCCOc1nc(N)c2ncc(Cc3cnc(N4CCC(CN(C)C)C4)c(C)c3)n2n1` (stereo not drawn) [Compound B105, 2-butoxy-7-((6-(3-((dimethylamino)methyl)pyrrolidin-1-yl)-5-methylpyridin-3-yl)methyl)imidazo[2,1-f][1,2,4]triazin-4-amine] displayed an EC50 of 177 nM.

As for `CCCCOc1nc(N)c2ncc(Cc3cnc(N4CCC(CNC)CC4)c(C)c3)n2n1` [Compound B106, 2-butoxy-7-((5-methyl-6-(4-((methylamino)methyl)piperidin-1-yl)pyridine-3-yl)methyl)imidazo[2,1-f][1,2,4]triazin-4-amine], the EC50 worked out at 71 nM.

`CCCCOc1nc(N)c2ncc(Cc3cnc(N4CCN(CCOC)CC4)c(C)c3)n2n1` [Compound B107, 2-butoxy-7-((6-(4-(2-methoxyethyl)piperazin-1-yl)-5-methylpyridin-3-yl)methyl)imidazo[2,1-f][1,2,4]triazin-4-amine] showed an EC50 of 185 nM.

The compound `CCCCOc1nc(N)c2ncc(Cc3cnc(N4CCC(N5CCOCC5)CC4)c(C)c3)n2n1` [Compound B108, 2-butoxy-7-((5-methyl-6-(4-morpholinopiperidin-1-yl)pyridine-3-yl)methyl)imidazo[2,1-f][1,2,4]triazin-4-amine] returned an EC50 of 159 nM.

`CCCCOc1nc(N)c2ncc(Cc3cnc(N4CCC(CN5CCOCC5)CC4)c(C)c3)n2n1` [Compound B109, 2-butoxy-7-((5-methyl-6-(4-(morpholinomethyl)piperidin-1-yl)pyridin-3-yl)methyl)imidazo[2,1-f][1,2,4]triazin-4-amine] came in with an EC50 of 161 nM.

Compound `CCCCOc1nc(N)c2ncc(Cc3cnc(N4CCC(CCN(C)C)CC4)c(C)c3)n2n1` [Compound B110, 2-butoxy-7-((6-(4-(2-(dimethylamino)ethyl)piperidin-1-yl)-5-methylpyridin-3-yl)methyl)imidazo[2,1-f][1,2,4]triazin-4-amine] returned an EC50 of 43 nM.

Compound `CCCC(C)Oc1nc(N)c2ncc(Cc3cnc(N4CCN(C(=O)CNC)CC4)c(C)c3)n2n1` (stereo not drawn) [Compound B111, 1-(4-(5-((4-amino-2-(pentan-2-yloxy)imidazo[2,1-f][1,2,4]triazin-7-yl)methyl)-3-methylpyridin-2-yl)piperazin-1-yl)-2-(methylamino)ethan-1-one] returned an EC50 of 9.8 nM.

Compound `CCC(C)Oc1nc(N)c2ncc(Cc3cnc(N4CCNCC4)c(C)c3)n2n1` (stereo not drawn) [Compound B112, 2-(sec-butoxy)-7-((5-methyl-6-(piperazin-1-yl)pyridin-3-yl)methyl)imidazo[2,1-f][1,2,4]triazin-4-amine] came in with an EC50 of 37 nM.

The compound `CCC(C)COc1nc(N)c2ncc(Cc3cnc(N4CCNCC4)c(C)c3)n2n1` (stereo not drawn) [Compound B113, 7-((5-methyl-6-(piperazin-1-yl)pyridin-3-yl)methyl)-2-(2-methylbutoxy)imidazo[2,1-f][1,2,4]triazin-4-amine] gave an EC50 of 447 nM.

The record behind these values is US12612407B2, “Imidazo[2,1-f][1,2,4]triazin-4-amine derivatives as TLR7 agonist” (BEIGENE, LTD., priority 2020, dated 2026).
